The target in data set [1] is T1, cathepsin G (Homo sapiens, UniProt P08311).
T1 sequence (P08311 21-244): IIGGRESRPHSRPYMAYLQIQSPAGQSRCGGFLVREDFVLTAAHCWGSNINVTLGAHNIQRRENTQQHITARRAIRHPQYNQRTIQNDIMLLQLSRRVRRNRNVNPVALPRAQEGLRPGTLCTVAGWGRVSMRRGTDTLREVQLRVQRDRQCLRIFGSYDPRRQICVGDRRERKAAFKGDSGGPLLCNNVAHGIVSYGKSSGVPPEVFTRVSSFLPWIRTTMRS
Briefly: Resistance to proteolytic degradation by cathepsin G (nano-LC/MS). As to conditions: peptide 50 ng/ml, 37° C., cathepsin G 13 mU/litre, pH 7.4. In kind it is in vitro ADME. The source says: (§1) The following peptides were compared for resistance against proteolytic degradation: CXCL9 (74-103) with L-amino acids (=L-amino acid peptide); CXCL9 (74-103) with D-amino acids (=D-amino acid peptide) and Acetyl-OOOQONGOOHQOOOQQOVROSQRORQOOTT [SEQ ID NO:2] This is a peptide derived from CXCL9 (74-103) with an acetyl-group on the N-terminus, lysines replaced by ornithine and VL (at positions 88 and 89) replaced by QQ and serine (at position 97) also replaced by ornithine (=ornithine peptide).
(§2) Incubations were performed with peptides at 50 ng/ml and 37° C. for 5 minutes up to 24 hours with trypsin, plasmin or cathepsin G. After the incubation, the reaction was stopped through addition of trifluoroacetic acid (to reach a final pH<4) and purified by nano-LC with on-line detection of eluted peptides by mass spectrometry.
(§3) Sample buffer for incubations with plasmin: 50 mM Tris-HCl 0.5 M NaCl PH 7.4; final plasmin conc. 50 μg/ml Sample buffer for incubations with cathepsin G: 20 mM Tris-HCl+1 mM CaCl2 pH 7.4; final conc. Cathepsin G at 13 mU/litre.

Data set [2] deals with plasmin (Homo sapiens, UniProt P00747). The data set is described as follows: Resistance to proteolytic degradation by plasmin (nano-LC/MS). In kind it is in vitro ADME. As to conditions: peptide 50 ng/ml, 37° C., plasmin 50 μg/ml, pH 7.4.
Sequence of plasmin (Homo sapiens, UniProt P00747) (P00747 581-810 limits assumed, species assumed): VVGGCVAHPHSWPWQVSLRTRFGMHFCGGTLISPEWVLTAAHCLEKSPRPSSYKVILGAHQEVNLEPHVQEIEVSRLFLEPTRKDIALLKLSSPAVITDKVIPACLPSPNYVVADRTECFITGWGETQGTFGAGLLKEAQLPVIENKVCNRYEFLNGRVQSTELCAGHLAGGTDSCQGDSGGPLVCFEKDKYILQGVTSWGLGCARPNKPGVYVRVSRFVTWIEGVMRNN
Sequence of plasmin (Homo sapiens, UniProt P00747) (P00747 97-580 partner limits assumed, species assumed): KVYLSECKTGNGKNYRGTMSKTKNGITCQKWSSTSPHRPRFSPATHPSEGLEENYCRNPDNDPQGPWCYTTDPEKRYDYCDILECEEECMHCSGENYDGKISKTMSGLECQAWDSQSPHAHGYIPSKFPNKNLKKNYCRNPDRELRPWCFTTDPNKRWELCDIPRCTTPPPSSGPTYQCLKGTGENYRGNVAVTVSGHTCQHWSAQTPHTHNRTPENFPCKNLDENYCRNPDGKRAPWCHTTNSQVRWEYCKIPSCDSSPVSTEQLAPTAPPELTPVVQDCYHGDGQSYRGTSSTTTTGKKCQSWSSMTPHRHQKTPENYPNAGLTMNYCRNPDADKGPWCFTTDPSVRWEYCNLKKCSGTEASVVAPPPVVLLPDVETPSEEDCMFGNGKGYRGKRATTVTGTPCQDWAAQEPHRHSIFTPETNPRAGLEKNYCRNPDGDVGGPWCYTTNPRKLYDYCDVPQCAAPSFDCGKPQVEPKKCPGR
From the text: as §1, §2, §3

Assay in data set [3]: as above
In kind it is in vitro ADME. As to conditions: isolated enzyme plasmin; peptide 50 ng/ml, 37° C., plasmin 50 μg/ml, pH 7.4; after 4 h incubation; read-out: degraded with plasmin.
From the text: as §1, §2, §3

The subject of data set [4] is cathepsin G. The data set is described as follows: 20 mM Tris-HCl+1 mM CaCl2 pH 7.4; final conc. Cathepsin G at 13 mU/litre. As to conditions: 37° C., up to 24 hours.
In data set [5] the test system is plasmin. Briefly: 50 mM Tris-HCl 0.5 M NaCl PH 7.4; final plasmin conc. 50 μg/ml. The note with it: 37° C., up to 24 hours.
The test system of the next data set is trypsin. The data set is described as follows: 100 mM Tris-HCl pH 8.5; final trypsin (from Sigma) conc. 250 ng/ml. As to conditions: 37° C., up to 24 hours.
The nature of data set [6]: Resistance to proteolytic degradation by cathepsin G (nano-LC/MS). The format is in vitro ADME. The note with it: cathepsin G (isolated protease); peptide 50 ng/ml, 37° C., cathepsin G 13 mU/litre, pH 7.4; after 4 h; read-out: degraded with cathepsin G.
From the text: as §1, §2, §3

In the next data set the test system is K. pneumonia. As to conditions: preventive treatment / pre-treatment; cited from earlier work.

Non-standard residues stand in square brackets, D forms with d. Residues, ends and D or L forms follow the SMILES beside them. No end group written: not given here. Orn = NCCC[C@H](N)C(=O)O Where only a bound is given, the exact number is not on record here.

Here are results for 6 molecules from patent US20250144177A1 (Katholieke Universiteit Leuven, priority 2022, published 2025).

Turning to `CC(C)C[C@@H](NC(=O)[C@H](NC(=O)[C@@H](CCCCN)NC(=O)[C@@H](CCCCN)NC(=O)[C@@H](CCCCN)NC(=O)[C@@H](CCC(N)=O)NC(=O)[C@@H](Cc1c[nH]cn1)NC(=O)[C@@H](CCCCN)NC(=O)[C@@H](CCCCN)NC(=O)CNC(=O)[C@@H](CC(N)=O)NC(=O)[C@@H](CCCCN)NC(=O)[C@@H](CCC(N)=O)NC(=O)[C@@H](CCCCN)NC(=O)[C@@H](CCCCN)NC(=O)[C@H](N)CCCCN)C(C)C)C(=O)N[C@H](CCCCN)C(=O)N[C@@H](C(=O)N[C@H](CCCNC(=N)N)C(=O)N[C@H](CCCCN)C(=O)N[C@H](CO)C(=O)N[C@H](CCC(N)=O)C(=O)N[C@H](CCCNC(=N)N)C(=O)N[C@H](CO)C(=O)N[C@H](CCCNC(=N)N)C(=O)N[C@H](CCC(N)=O)C(=O)N[C@H](CCCCN)C(=O)N[C@H](CCCCN)C(=O)N[C@@H](C(=O)N[C@@H](C(=O)O)[C@H](C)O)[C@H](C)O)C(C)C` [D-amino acid peptide] (H-[dK][dK][dK][dQ][dK][dN]G[dK][dK][dH][dQ][dK][dK][dK][dV][dL][dK][dV][dR][dK][dS][dQ][dR][dS][dR][dQ][dK][dK][dT][dT]-OH; N-terminus and C-terminus assumed), the metabolised at 24 h, 50 ng/ml on cathepsin G [1] (cathepsin G (isolated protease), after 24 h) came to 68%. Also, the “degradation with cathepsin G” value at cathepsin G [1] (up to 8 h) is “less than 5%”. For the same molecule, on plasmin [2] (between 5 min and 8 hours), the resistance to plasmin entry is reported as “resistant”.
`CC(=O)N[C@@H](CCCN)C(=O)N[C@@H](CCCN)C(=O)N[C@@H](CCCN)C(=O)N[C@@H](CCC(N)=O)C(=O)N[C@@H](CCCN)C(=O)N[C@@H](CC(N)=O)C(=O)NCC(=O)N[C@@H](CCCN)C(=O)N[C@@H](CCCN)C(=O)N[C@@H](Cc1c[nH]cn1)C(=O)N[C@@H](CCC(N)=O)C(=O)N[C@@H](CCCN)C(=O)N[C@@H](CCCN)C(=O)N[C@@H](CCCN)C(=O)N[C@@H](CCC(N)=O)C(=O)N[C@@H](CCC(N)=O)C(=O)N[C@@H](CCCN)C(=O)N[C@H](C(=O)N[C@@H](CCCNC(=N)N)C(=O)N[C@@H](CCCN)C(=O)N[C@@H](CO)C(=O)N[C@@H](CCC(N)=O)C(=O)N[C@@H](CCCNC(=N)N)C(=O)N[C@@H](CCCN)C(=O)N[C@@H](CCCNC(=N)N)C(=O)N[C@@H](CCC(N)=O)C(=O)N[C@@H](CCCN)C(=O)N[C@@H](CCCN)C(=O)N[C@H](C(=O)N[C@H](C(=O)O)[C@@H](C)O)[C@@H](C)O)C(C)C` [Ornithine peptide, Acetyl-OOOQONGOOHQOOOQQOVROSQRORQOOTT] (Ac-[Orn][Orn][Orn]Q[Orn]NG[Orn][Orn]HQ[Orn][Orn][Orn]QQ[Orn]VR[Orn]SQR[Orn]RQ[Orn][Orn]TT-OH; C-terminus assumed): the “cleavage with cathepsin G” value at cathepsin G [1] (5 min up to 4 h incubation) is on record as “no cleavage”. The “cleavage after arginine with plasmin” value on plasmin [2] (after 5 min) is listed as less than 10%. Besides, the metabolised at 4 h in data set [3] is greater than 70%.
For the molecule Acetyl-OOOQONGOOHQOOOQQOVROSQRORQOOTT, the not cleaved result with cathepsin G [4] is on record as “no cleavage with cathepsin G after 5 min up to 4 h incubation”.
Take CXCL9 (74-103) with D-amino acids: the not cleaved entry was “resistant to plasmin at incubations between 5 min and 8 hours” in the data set with plasmin [5]; “fully resistant to trypsin at incubations from 5 min. up to 4 hours” with trypsin.
With “KKKQKNGKKHQKKKVLKVRKSQRSRQKKTT [CXCL9 (74-103)]”, the “stability to cathepsin G” value at cathepsin G [1] (up to 2 h) is reported as “stable”. Further, the metabolised at 4 h, 50 ng/ml in data set [6] was greater than 90%. The values for the degradation with plasmin result on plasmin [2] (after 5 min) and at plasmin [2] (after 30 minutes) were “partial degraded” and “fully degradation”, respectively.

B1: VAP-1/SSAO: an endothelial bound adhesion molecule with amine oxidase activity involved in neutrophil egress from the microvasculature (protein, UniProt Q16853 1-763, looked up)
Amine oxidase …: MNQKTILVLLILAVITIFALVCVLLVGRGGDGGEPSQLPHCPSVSPSAQPWTHPGQSQLFADLSREELTAVMRFLTQRLGPGLVDAAQARPSDNCVFSVELQLPPKAAALAHLDRGSPPPAREALAIVFFGRQPQPNVSELVVGPLPHPSYMRDVTVERHGGPLPYHRRPVLFQEYLDIDQMIFNRELPQASGLLHHCCFYKHRGRNLVTMTTAPRGLQSGDRATWFGLYYNISGAGFFLHHVGLELLVNHKALDPARWTIQKVFYQGRYYDSLAQLEAQFEAGLVNVVLIPDNGTGGSWSLKSPVPPGPAPPLQFYPQGPRFSVQGSRVASSLWTFSFGLGAFSGPRIFDVRFQGERLVYEISLQEALAIYGGNSPAAMTTRYVDGGFGMGKYTTPLTRGVDCPYLATYVDWHFLLESQAPKTIRDAFCVFEQNQGLPLRRHHSDLYSHYFGGLAETVLVVRSMSTLLNYDYVWDTVFHPSGAIEIRFYATGYISSAFLFGATGKYGNQVSEHTLGTVHTHSAHFKVDLDVAGLENWVWAEDMVFVPMAVPWSPEHQLQRLQVTRKLLEMEEQAAFLVGSATPRYLYLASNHSNKWGHPRGYRIQMLSFAGEPLPQNSSMARGFSWERYQLAVTQRKEEEPSSSSVFNQNDPWAPTVDFSDFINNETIAGKDLVAWVTAGFLHIPHAEDIPNTVTVGNGVGFFLRPYNFFDEDPSFYSADSIYFRGDQDAGACEVNPLACLPQAAACAPDLPAFSHGGFSHN
As for B1, in the data set on K. pneumonia, the bacterial load result is given as “increased” and the “neutrophil recruitment / migration” value was “decreased”.
